These results are taken from patent US6339064B1, “Benzylglycosylamides as inhibitors of smooth muscle cell proliferation” (American Home Products Corporation, priority 1998, dated 2002).

The term IC50 denotes the midpoint of a concentration-inhibition curve. Read a high IC50 as weaker potency.

One test relates to Porcine Smooth Muscle Cell. Nature of the test: Effects of compounds on cell proliferation using 3H thymidine incorporation (porcine smooth muscle cell antiproliferation). It counts as cell-based. The conditions noted are these: Sus scrofa, serum/growth factor stimulated cells, 24-36 h incubation. The method, then:
Effects of Compounds on Cell Proliferation Using ^3H Thymidine Incorporation
Human and porcine smooth muscle cells were tested in early passage (generally passage 3-7) at sub-confluent conditions. Cultures were grown in 16 mm (24 well) multi-well culture dishes in medium 199 supplemented with 10% fetal bovine serum and 2% antibiotic/antimycotic. At sub-confluence, the cells were placed in a defined serum free medium (AIM-V; Gibco) for 24-48 h prior to initiating the experimental protocol.
Compounds were added to each well at 50 fold dilution (20 μL/well) and the plates were incubated for 24-36 h at 37° C. in 5% CO2. Compounds were initially dissolved in 50% ethanol and serially diluted into media. Compounds were routinely evaluated at concentrations from 1 to 100 μM. As a control, grade II porcine intestinal mucosal herapin (sodium salt) was routinely evaluated in all cell preparations at concentrations from 0.1 to 100 μg/mL.
At the completion of the test procedure, plates were placed on ice, washed three times with ice cold phosphate buffered saline (PBS) and incubated in ice cold 10% trichloroacetic acid (TCA) got 30 min to remove acid soluble proteins. Solution was transferred to scintillation vials containing 0.4 N HCl (500 μL/vial to neutralize NaOH) and each well was rinsed two times with water (500 μL) for a total volume of 2 mL/vial.
Data was obtained, in triplicate, for both control and experimental samples. Control (100%) data was obtained from maximally stimulated cells, as the result of growth factor or serum stimulation. Experimental data was obtained from cells maximally stimulated with growth factor or serum and treated with compound. Data are expressed as an IC50 in Table I below.
For `CCCCOc1ccc(C(=O)N[C@@H]2O[C@H](COC(C)=O)[C@@H](O[C@H]3O[C@H](COC(C)=O)[C@@H](OC(C)=O)[C@H](OC(C)=O)[C@H]3OC(C)=O)[C@H](OC(C)=O)[C@H]2OC(C)=O)cc1Cl` [Example 18, 4-butoxy-3-chloro-N-[2,3,6-tri-O-acetyl-4-O-(2,3,4,6-tetra-O-acetyl-α-D-glucopyranosyl)-β-D-glucopyranosyl]benzamide], the IC50 turned out to be 3.5 µM.

Still in this test, the particulars now being: at 50 μM, control (100%) = maximally stimulated cells.
As for `CCCCOc1ccc(C(=O)NC2OC(CO)C(OC3OC4COC(c5ccccc5)OC4C(O)C3O)C(O)C2O)cc1Cl.O` [Example 19, 4-Butoxy-3-chloro-N-[(4′,6′-O-benzylidene)-β-D-maltosyl]-benzamide hydrate], the “Porcine Smooth Muscle Cell Antiproliferation, % at 50 μM” value is 35% at 50.
In the case of `COc1ccc(CC(=O)NC2OC(CO)C(OC3OC4COC(c5ccccc5)OC4C(O)C3O)C(O)C2O)cc1OC` [Example 46, N-(4′,6′-Benzylidene-β-D-maltosyl)-2-(3,4-dimethoxy-phenyl)-acetamide], the “Porcine Smooth Muscle Cell Antiproliferation, % at 50 μM” value is reported as 0% at 50.
Still for that read-out and setting: for `COc1cc(C(=O)NC2OC(CO)C(OC3OC4COC(c5ccccc5)OC4C(O)C3O)C(O)C2O)ccc1Cl` [Example 23, N-(4′,6′-O-Benzylidene-β-D-maltosyl)-4-chloro-3-methoxy-benzamide] the value was 2% at 50; for `N#CCCCOc1ccc(C(=O)NC2OC(CO)C(OC3OC4COC(c5ccccc5)OC4C(O)C3O)C(O)C2O)cc1Cl` [Example 15, N-(4′,6′-O-Benzylidene-β-D-maltosyl)-3-chloro-4-(4-nitrilo-butoxy)-benzamide], 30% at 50.
As to `CCCCOc1c(Cl)cc(C(=O)N[C@@H]2O[C@H](CO)[C@@H](O[C@H]3O[C@@H]4COC(c5ccccc5)O[C@H]4[C@H](O)[C@H]3O)[C@H](O)[C@H]2O)cc1OC.O` (stereo partly drawn) [Example 26, 4-butoxy-3-chloro-N-[(4′,6′-O-benzylidene)-β-D-maltosyl]-5-methoxy-benzamide Hydrate], the “Porcine Smooth Muscle Cell Antiproliferation, % at 50 μM” value is reported as 32% at 50.
`CC(=O)OC1C(NC(=O)c2ccc(OCCCC#N)c([N+](=O)[O-])c2)OC(COC(=O)c2ccccc2)C(OC2OC3COC(c4ccccc4)OC3C(OC(C)=O)C2OC(C)=O)C1OC(C)=O` [Example 31, N-(2,2′,3,3′-tetra-O-Acetyl-6-O-benzoyl-4′,6′-O-benzylidene-β-D-maltosyl)-4-(4-nitrilo-butoxy)-3-nitro-benzamide]: the “Porcine Smooth Muscle Cell Antiproliferation, % at 50 μM” value was 15% at 50.

The same test, now with this note: serum/growth factor stimulated cells, 24-36 h incubation.
As to `CC(=O)OC[C@H]1O[C@@H](NC(=O)c2cccc(C(F)(F)F)c2)[C@H](OC(C)=O)[C@@H](OC(C)=O)[C@@H]1O[C@H]1O[C@H](COC(C)=O)[C@@H](OC(C)=O)[C@H](OC(C)=O)[C@H]1OC(C)=O` [Example 38, N-(Hepta-O-acetyl-β-D-maltosyl)-3-(trifluoromethyl)-benzamide], the concentration for half-maximal inhibition (IC50) was 5.8 µM.
The compound `CCCCOc1c(Cl)cc(C(=O)N[C@@H]2O[C@H](CO)[C@@H](O[C@H]3O[C@H](CO)[C@@H](O)[C@H](O)[C@H]3O)[C@H](O)[C@H]2O)cc1Cl` [Example 42, 4-Butoxy-3,5-dichloro-N-β-D-maltosyl-benzamide] returned an IC50 of 28.9 µM.
For the compound `CC(=O)Nc1cc(C(=O)NC2OC(COC(=O)c3ccccc3)C(OC3OC4COC(c5ccccc5)OC4C(O)C3OC(C)=O)C(O)C2OC(C)=O)ccc1Cl` [Example 9, (R)-N-[2-O-Acetyl-4-O-[2-O-acetyl-4,6-O-(phenylmethylene)-α-D-glucopyranosyl]-6-O-benzoyl-β-D-glucopyranosyl]-3-(acetylamino)-4-chlorobenzamide], the half-inhibitory concentration (IC50) worked out at 1.25 µM.
`CC(=O)Nc1cc(CC(=O)N[C@@H]2O[C@H](COC(=O)c3ccccc3)[C@@H](O[C@H]3O[C@@H]4COC(c5ccccc5)O[C@H]4[C@H](O)[C@H]3O)[C@H](O)[C@H]2O)ccc1Cl` (some centres unmarked) [Example 51] gave a half-maximal inhibitory concentration (IC50) of 0.916 µM.
`COc1ccc(C(=O)N[C@@H]2O[C@H](COC(C)=O)[C@@H](O[C@H]3O[C@H](COC(C)=O)[C@@H](OC(C)=O)[C@H](OC(C)=O)[C@H]3OC(C)=O)[C@H](OC(C)=O)[C@H]2OC(C)=O)c(OC)n1` [Example 36, N-(Hepta-O-acetyl-β-D-maltosyl)-2,6-dimethoxy-pyridine-3-carboxamide] had a half-maximal inhibitory concentration (IC50) of 13.6 µM. This IC50 is about 15-fold higher than that of the compound before.
`CC(=O)OC[C@H]1O[C@@H](NC(=O)Cc2ccc(Cl)c([N+](=O)[O-])c2)[C@H](OC(C)=O)[C@@H](OC(C)=O)[C@@H]1O[C@H]1O[C@H](COC(C)=O)[C@@H](OC(C)=O)[C@H](OC(C)=O)[C@H]1OC(C)=O` [Example 50, N-(2,2′,3,3′,4′,6,6′-hepta-O-acetyl-β-D-maltosyl)-2-(4-chloro-3-nitro-phenyl)-acetamide] had an IC50 of 4.23 µM.
Still for that read-out and setting: next, `CC(=O)O[C@@H]1[C@@H](OC(C)=O)[C@H](NC(=O)c2ccc(Cl)c([N+](=O)[O-])c2)O[C@H](COC(=O)c2ccccc2)[C@H]1O[C@H]1O[C@@H]2COC(c3ccccc3)O[C@H]2[C@H](OC(C)=O)[C@H]1OC(C)=O` (stereo partly drawn) [Example 8, 4-Chloro-N-[(2,2′,3,3′-tetra-O-acetyl-6-benzoyl-4′,6′-O benzylidene)-β-D-maltosyl]-3-nitro-benzamide]: 0.26 µM.
Regarding `COc1cc(C(=O)NC2OC(COC(=O)c3ccccc3)C(OC3OC4COC(c5ccccc5)OC4C(O)C3O)C(O)C2O)ccc1Cl` [Example 24, N-(6-O-Benzoyl-4′,6′-O-benzylidene-β-D-maltosyl)-4-chloro-3-methoxy-benzamide], half-maximal inhibition (IC50) was put at 2 µM.
`COc1ccc(CC(=O)N[C@@H]2O[C@H](COC(C)=O)[C@@H](O[C@H]3O[C@H](COC(C)=O)[C@@H](OC(C)=O)[C@H](OC(C)=O)[C@H]3OC(C)=O)[C@H](OC(C)=O)[C@H]2OC(C)=O)cc1OC` [Example 45, N-(2,2′,3,3′,4′,6,6′-hepta-O-acetyl-β-D-maltosyl)-1-(3,4-dimethoxy)-phenyl-acetamide] came in with a half-maximal inhibitory concentration (IC50) of 16.6 µM.
For `CCCCOc1ccc(C(=O)NC2OC(COC(=O)c3ccccc3)C(OC3OC4COC(c5ccccc5)OC4C(O)C3O)C(O)C2O)cc1Cl` [Example 20, 4-Butoxy-3-chloro-N-[(6-O-benzoyl-4′,6′-O-benzylidene)-β-D-maltosyl]-benzamide], half-maximal inhibition (IC50) required 3.14 µM.
Consider `CCCCOc1ccc(C(=O)N[C@@H]2O[C@H](COC(=O)c3ccccc3)[C@@H](O[C@H]3O[C@@H]4COC(c5ccccc5)O[C@H]4[C@H](OC(C)=O)[C@H]3OC(C)=O)[C@H](OC(C)=O)[C@H]2OC(C)=O)cc1Cl` (stereo partly drawn) [Example 21, 4-Butoxy-3-chloro-N-[(2,3,2′,3′-tetra-O-acetyl-6-O-benzoyl-4′,6′-O-benzylidene)-β-D-maltosyl]-benzamide], for which half-maximal inhibition (IC50) required 9.8 µM.
The compound `COc1ccc(CC(=O)NC2OC(COC(=O)c3ccccc3)C(OC3OC4COC(c5ccccc5)OC4C(O)C3O)C(O)C2O)cc1OC` [Example 47, N-(6-O-Benzoyl-4′,6′-O-benzylidene-β-D-maltosyl)-2-(3,4-dimethoxy-phenyl)-acetamide] registered an IC50 of 8 µM.
The compound `CC(=O)OC[C@H]1O[C@@H](NC(=O)c2cncc(Br)c2)[C@H](OC(C)=O)[C@@H](OC(C)=O)[C@@H]1O[C@H]1O[C@H](COC(C)=O)[C@@H](OC(C)=O)[C@H](OC(C)=O)[C@H]1OC(C)=O` [Example 37, N-(Hepta-O-acetyl-β-D-maltosyl)-5-bromopyridine-3-carboxamide] returned a half-maximal inhibitory concentration (IC50) of 16.4 µM.
As to `N#CCCCOc1ccc(C(=O)NC2OC(COC(=O)c3ccccc3)C(OC3OC4COC(c5ccccc5)OC4C(O)C3O)C(O)C2O)cc1[N+](=O)[O-]` [Example 30, N-(6-O-Benzoyl-4′,6′-O-benzylidene-β-D-maltosyl)-4-(4-nitrilo-butoxy)-3-nitro-benzamide], the midpoint of inhibition, the IC50, lay at 1.4 µM.
`N#CCCCOc1ccc(C(=O)NC2OC(COC(=O)c3ccccc3)C(OC3OC4COC(c5ccccc5)OC4C(O)C3O)C(O)C2O)cc1Cl` [Example 16, N-(6-O-Benzoyl-4′,6′-O-benzylidene-β-D-maltosyl)-3-chloro-4-(4-nitrilo-butoxy)-phenyl amide]: the IC50 stood at 0.27 µM.
On the same count and under the same terms, next, `O=C(NC1OC(COC(=O)c2ccccc2)C(OC2OC3COC(c4ccccc4)OC3C(O)C2O)C(O)C1O)c1ccc(Cl)cc1` [Example 12, N-(6-O-benzoyl-4′,6′-O-benzylidene-β-D-maltosyl)-4-chloro-benzamide]: 49.2 µM; `CC(=O)OC[C@H]1O[C@@H](NC(=O)c2ccc(Cl)nc2)[C@H](OC(C)=O)[C@@H](OC(C)=O)[C@@H]1O[C@H]1O[C@H](COC(C)=O)[C@@H](OC(C)=O)[C@H](OC(C)=O)[C@H]1OC(C)=O` [Example 35, N-(Hepta-O-acetyl-β-D-maltosyl)-6-chloropyridine-3-carboxamide]: 66.6 µM; `CCCCOc1c(Cl)cc(C(=O)NC2OC(CO)C(OC3OC4COC(c5ccccc5)OC4C(O)C3O)C(O)C2O)cc1Cl` [Example 43, N-(4′,6′-O-Benzylidene-β-D-maltosyl)-4-butoxy-3,5-dichloro-benzamide]: 44.5 µM.
For the compound `COc1ccc(C(=O)N[C@@H]2O[C@H](COC(C)=O)[C@@H](O[C@H]3O[C@H](COC(C)=O)[C@@H](OC(C)=O)[C@H](OC(C)=O)[C@H]3OC(C)=O)[C@H](OC(C)=O)[C@H]2OC(C)=O)cc1Cl` [Example 44, N-(Hepta-O-acetyl-β-D-maltosyl)-3-chloro-4-methoxy-benzamide], the midpoint of inhibition, the IC50, lay at 5.4 µM.
